Where “and” joins values, the source holds several entries; their conditions need not be identical. Equal entries are not always repeated. Toxic doses and inconclusive results are not listed. Rule for the calls: active = survival T/C of 150% or more; inactive = T/C below 125% in these data.
Test system: P388 leukemia ip, CD2F1 mice, survival T/C
Test: NCI In Vivo Anticancer Drug Screen. Data for tumor model P388 Leukemia (intraperitoneal) in CD2F1 (CDF1) mice
Conditions: endpoint: median survival time, higher = longer survival
Method in brief: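 Mice carrying the transplanted tumor received test compound or vehicle. Survival was recorded in each group, and the value is the treated-group measurement divided by that of the vehicle-treated control group.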

[1] = dose: 6.25 mg/kg/injection, schedule: Q01DX005 (ip), vehicle: Klucel (hydroxypropylcellulose) (HPC)
[2] = dose: 12.5 mg/kg/injection, schedule: Q01DX005 (ip), vehicle: Klucel (hydroxypropylcellulose) (HPC)
[3] = dose: 12.5 mg/kg/injection, schedule: Q01DX009 (ip), vehicle: saline with Tween-80
[4] = dose: 25.0 mg/kg/injection, schedule: Q01DX009 (ip), vehicle: saline with Tween-80
[5] = dose: 50.0 mg/kg/injection, schedule: Q01DX009 (ip), vehicle: saline with Tween-80

Measured: T/C

O=C1OC2C3COC(=O)c4cc(O)c(O)c(O)c4-c4c(cc(O)c(O)c4O)C(=O)OC2C(OC(=O)c2cc(O)c(O)c4c2[C@@H]2C1=CC(=O)[C@](O)(O4)C2(O)O)C(OC(=O)c1cc(O)c(O)c(O)c1)O3 (some centres undefined)
inactive: dose: 6.25 mg/kg/injection, schedule: Q01DX005 (ip), vehicle: DMSO 106 % of control | dose: 12.5 mg/kg/injection, schedule: Q01DX005 (ip), vehicle: DMSO 106 % of control | dose: 25.0 mg/kg/injection, schedule: Q01DX005 (ip), vehicle: DMSO 115 % of control

CC(=O)OC1OC(/C=N\N(C)C)C(OCc2ccccc2)C(OCc2ccccc2)C1OC(C)=O (centres undefined)
inactive: dose: 3.12 mg/kg/injection, schedule: Q01DX005 (ip), vehicle: Klucel (hydroxypropylcellulose) (HPC) 95 % of control | [1] 97 % of control | dose: 6.25 mg/kg/injection, schedule: Q01DX009 (ip), vehicle: Klucel (hydroxypropylcellulose) (HPC) 104 % of control | [2] 94 % of control | dose: 12.5 mg/kg/injection, schedule: Q01DX009 (ip), vehicle: Klucel (hydroxypropylcellulose) (HPC) 92 % of control | dose: 25.0 mg/kg/injection, schedule: Q01DX009 (ip), vehicle: Klucel (hydroxypropylcellulose) (HPC) 92 % of control | dose: 25.0 mg/kg/injection, schedule: Q01DX009 (ip), vehicle: other 92 % of control | dose: 50.0 mg/kg/injection, schedule: Q01DX009 (ip), vehicle: other 88 % of control | dose: 100.0 mg/kg/injection, schedule: Q01DX009 (ip), vehicle: other 94 % of control | dose: 200.0 mg/kg/injection, schedule: Q01DX009 (ip), vehicle: other 89 % of control

COc1cc(OC)c2cc(C(=O)c3ccc(C#N)cc3)c(=O)oc2c1
inactive: dose: 60.0 mg/kg/injection, schedule: Q01DX005 (ip), vehicle: saline with Tween-80 94 % of control | dose: 120.0 mg/kg/injection, schedule: Q01DX005 (ip), vehicle: saline with Tween-80 104 % of control | dose: 240.0 mg/kg/injection, schedule: Q01DX005 (ip), vehicle: saline with Tween-80 105 % of control

C[Se]C(C)(C)C(O)(Cc1ccccc1)c1ccccc1 (centres undefined)
inactive: dose: 25.0 mg/kg/injection, schedule: Q04DX002 (ip), vehicle: saline with Tween-80 88 % of control | dose: 50.0 mg/kg/injection, schedule: Q04DX002 (ip), vehicle: saline with Tween-80 94 % of control | dose: 100.0 mg/kg/injection, schedule: Q04DX002 (ip), vehicle: saline with Tween-80 101 % of control

COC1=CC(=O)c2cc3ccc(OC)c(N)c3nc2C1=O
inactive: dose: 100.0 mg/kg/injection, schedule: Q01DX001 (ip), vehicle: Klucel (hydroxypropylcellulose) (HPC) 100 % of control | dose: 200.0 mg/kg/injection, schedule: Q01DX001 (ip), vehicle: Klucel (hydroxypropylcellulose) (HPC) 102 % of control

CSc1nsc(SC)c1C(N)=O
inactive: dose: 60.0 mg/kg/injection, schedule: Q01DX005 (ip), vehicle: Klucel (hydroxypropylcellulose) (HPC) 99 % of control | dose: 120.0 mg/kg/injection, schedule: Q01DX005 (ip), vehicle: Klucel (hydroxypropylcellulose) (HPC) 98 % of control | dose: 240.0 mg/kg/injection, schedule: Q01DX005 (ip), vehicle: Klucel (hydroxypropylcellulose) (HPC) 105 % of control

CC(C)c1ccc2c[n+]3ccccc3cc2c1
inactive: [1] 100 % of control and 108 % of control | [2] 106 % of control and 112 % of control

COC(=O)C(CO)NC(=O)C(Cc1cnc[nH]1)N(C(=O)OCc1ccccc1)C(=O)OCc1ccccc1 (centres undefined)
inactive: dose: 50.0 mg/kg/injection, schedule: Q01DX005 (ip), vehicle: saline with Tween-80 94 % of control | dose: 100.0 mg/kg/injection, schedule: Q01DX005 (ip), vehicle: saline with Tween-80 96 % of control | dose: 200.0 mg/kg/injection, schedule: Q01DX005 (ip), vehicle: saline with Tween-80 94 % of control

COc1cc(C)c(/C(=N/O)n2nnc(-c3ccc(C)cc3)n2)c(C)c1
inactive: dose: 100.0 mg/kg/injection, schedule: Q01DX001 (ip), vehicle: saline with Tween-80 92 % of control | dose: 200.0 mg/kg/injection, schedule: Q01DX001 (ip), vehicle: saline with Tween-80 91 % of control

O=C(O)CSc1nnc2c3ccccc3c3ccccc3c2n1
inactive: [3] 97 % of control | [4] 100 % of control | [5] 100 % of control and 93 % of control | dose: 100.0 mg/kg/injection, schedule: Q01DX009 (ip), vehicle: saline with Tween-80 87 % of control | dose: 200.0 mg/kg/injection, schedule: Q01DX009 (ip), vehicle: saline with Tween-80 101 % of control

Fc1ccc(N(c2nc(Cl)nc(Cl)n2)c2nc(Cl)nc(Cl)n2)cc1
inactive: [3] 113 % of control | [4] 100 % of control | [5] 113 % of control

Reference: PubChem BioAssay AID330 (DTP/NCI, 2004)
